According to PubChem BioAssay AID248 (DTP/NCI, 2004):
Values joined by “and” are separate entries in the source; they are usually repeats but may differ in a detail not shown here. Identical values can stand only once. Inconclusive results and toxic doses are left out. Rule as the data show it: active = T/C of 150% or more; inactive = T/C below 125%.

Tested on: L1210 leukemia ip in BDF1 mice, survival T/C
Assay: NCI In Vivo Anticancer Drug Screen. Data for tumor model L1210 Leukemia (intraperitoneal) in B6D2F1 (BDF1) mice
Details: endpoint: mean survival time, higher = longer survival
In short: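 Tumor was transplanted into mice, which were then dosed with test compound or vehicle alone. Survival was recorded for each group, and the treated figure was expressed relative to the control figure.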

[1] = dose: 100.0 mg/kg/injection, schedule: Q01DX009 (ip), vehicle: Klucel (hydroxypropylcellulose) (HPC)
[2] = dose: 100.0 mg/kg/injection, schedule: Q04DX003 (ip), vehicle: Klucel (hydroxypropylcellulose) (HPC)
[3] = dose: 200.0 mg/kg/injection, schedule: Q01DX009 (ip), vehicle: Klucel (hydroxypropylcellulose) (HPC)
[4] = dose: 200.0 mg/kg/injection, schedule: Q04DX003 (ip), vehicle: Klucel (hydroxypropylcellulose) (HPC)
[5] = dose: 400.0 mg/kg/injection, schedule: Q04DX003 (ip), vehicle: Klucel (hydroxypropylcellulose) (HPC)
[6] = dose: 25.0 mg/kg/injection, schedule: Q01DX009 (ip), vehicle: Klucel (hydroxypropylcellulose) (HPC)
[7] = dose: 50.0 mg/kg/injection, schedule: Q01DX009 (ip), vehicle: Klucel (hydroxypropylcellulose) (HPC)

Measured: T/C

Cc1cnc2c(N)nn(C)c2n1
inactive: dose: 50.0 mg/kg/injection, schedule: Q01DX009 (ip), vehicle: saline 102 % of control | dose: 100.0 mg/kg/injection, schedule: Q01DX009 (ip), vehicle: saline 110 % of control | dose: 100.0 mg/kg/injection, schedule: Q04DX003 (ip), vehicle: alcohol 102 % of control | dose: 200.0 mg/kg/injection, schedule: Q04DX003 (ip), vehicle: alcohol 98 % of control

O=[N+]([O-])c1ccc(N/N=C/c2ccccc2)cc1
inactive: dose: 15.0 mg/kg/injection, schedule: Q01DX Z (ip), vehicle: carboxymethylcellulose (CMC) 91 % of control | dose: 30.0 mg/kg/injection, schedule: Q01DX Z (ip), vehicle: carboxymethylcellulose (CMC) 100 % of control | dose: 60.0 mg/kg/injection, schedule: Q01DX Z (ip), vehicle: carboxymethylcellulose (CMC) 94 % of control and 100 % of control | dose: 120.0 mg/kg/injection, schedule: Q01DX Z (ip), vehicle: carboxymethylcellulose (CMC) 94 % of control and 97 % of control | dose: 240.0 mg/kg/injection, schedule: Q01DX Z (ip), vehicle: carboxymethylcellulose (CMC) 97 % of control | dose: 480.0 mg/kg/injection, schedule: Q01DX Z (ip), vehicle: carboxymethylcellulose (CMC) 100 % of control

Cc1c([N+](=O)[O-])cc(C(C)(C)C)c(OC(=O)c2ccccc2)c1[N+](=O)[O-]
inactive: dose: 100.0 mg/kg/injection, schedule: Q04DX002 (ip), vehicle: saline with Tween-80 123 % of control | dose: 200.0 mg/kg/injection, schedule: Q04DX002 (ip), vehicle: saline with Tween-80 116 % of control

Cc1ccc(S(=O)(=O)N2CCC(O)(c3ccccc3)CC2)cc1
inactive: [1] 91 % of control | [2] 90 % of control | [3] 90 % of control | [4] 91 % of control | dose: 400.0 mg/kg/injection, schedule: Q01DX009 (ip), vehicle: Klucel (hydroxypropylcellulose) (HPC) 92 % of control | [5] 89 % of control

CCC1CCC(Cc2ccncc2)CC1 (centres undefined)
inactive: [2] 98 % of control | [4] 92 % of control

Cc1ccc(C)c(NC(=O)Oc2ccc(Br)cc2Br)c1
inactive: [6] 92 % of control | [7] 94 % of control | [2] 94 % of control | [3] 93 % of control and 114 % of control | [4] 87 % of control | [5] 110 % of control

NC(=O)OCC1OC(n2cnc3c(=O)[nH]c(N)nc32)C(O)C1O (centres undefined)
inactive: [6] 94 % of control | [7] 98 % of control | dose: 100.0 mg/kg/injection, schedule: Q01DX005 (ip), vehicle: saline 105 % of control | [1] 94 % of control | dose: 200.0 mg/kg/injection, schedule: Q01DX005 (ip), vehicle: saline 92 % of control

CC(=O)NC12CC3CC(CC(C)(C3)C1)C2
inactive: dose: 100.0 mg/kg/injection, schedule: Q01DX001 (ip), vehicle: Klucel (hydroxypropylcellulose) (HPC) 103 % of control | dose: 200.0 mg/kg/injection, schedule: Q01DX001 (ip), vehicle: Klucel (hydroxypropylcellulose) (HPC) 106 % of control

CCCCNC(=O)C(C)S(=O)(=O)c1ccc(C)cc1 (centres undefined)
inactive: dose: 100.0 mg/kg/injection, schedule: Q04DX003 (ip), vehicle: saline with Tween-80 100 % of control | dose: 200.0 mg/kg/injection, schedule: Q04DX003 (ip), vehicle: saline with Tween-80 100 % of control | dose: 400.0 mg/kg/injection, schedule: Q04DX003 (ip), vehicle: saline with Tween-80 98 % of control

O=C1OCC/C1=C/CCCCC/C=C1\CCOC1=O
inactive: dose: 100.0 mg/kg/injection, schedule: Q01DX001 (sc), vehicle: olive oil, sesame oil, peanut oil 103 % of control | dose: 100.0 mg/kg/injection, schedule: Q04DX003 (sc), vehicle: olive oil, sesame oil, peanut oil 104 % of control | dose: 200.0 mg/kg/injection, schedule: Q01DX001 (sc), vehicle: olive oil, sesame oil, peanut oil 100 % of control | dose: 200.0 mg/kg/injection, schedule: Q04DX003 (sc), vehicle: olive oil, sesame oil, peanut oil 100 % of control | dose: 400.0 mg/kg/injection, schedule: Q01DX001 (sc), vehicle: olive oil, sesame oil, peanut oil 96 % of control | dose: 400.0 mg/kg/injection, schedule: Q04DX003 (sc), vehicle: olive oil, sesame oil, peanut oil 102 % of control

ClCC[n+]1ccccc1
inactive: dose: 75.0 mg/kg/injection, schedule: Q01DX001 (ip), vehicle: saline 104 % of control | dose: 150.0 mg/kg/injection, schedule: Q01DX001 (ip), vehicle: saline 101 % of control
